Measurements as given in US20240166652A1, “MODULATORS OF THE INTEGRATED STRESS PATHWAY” (Calico Life Sciences LLC, priority 2017, published 2024).
Values belong to the compound of their own block, whether it stands above or below them.

Key:
[1] = target: T1, eIF2B mutant B5 R113H (HEK293T ATF4-Fluc cells) (Homo sapiens, UniProt P49770+Q13144+Q9UI10, R113H); experiment: ATF4-Luc assay, VWMD eIF2B mutant B5 R113H; format: cell-based; details: 1 μg/mL tunicamycin, 7 hours
T1 construct: endogenous in cells
Method: (§1) In order to test exemplary compounds of the invention in a cellular context, a stable VWMD cell line was first constructed. The ATF4 reporter was prepared by fusing the human full-length ATF4 5′-UTR (NCBI Accession No. BC022088.2) in front of the firefly luciferase (FLuc) coding sequence lacking the initiator methionine as described in Sidrauski et al (eLife 2013). The construct was used to produce recombinant retroviruses using standard methods and the resulting viral supernatant was used to transduce HEK293T cells, which were then subsequently selected with puromycin to generate a stable cell line.
(§2) HEK293T cells carrying the ATF4 luciferase reporter were plated on polylysine coated 384-well plates (Greiner Bio-one) at 30,000 cells per well. Cells were treated the next day with 1 μg/mL tunicamycin and 200 nM of a compound of Formula (I) for 7 hours. Luminescence was measured using One Glo (Promega) as specified by the manufacturer. Cells were maintained in DMEM with L-glutamine supplemented with 10% heat-inactivated FBS (Gibco) and Antibiotic-Antimycotic solution (Gibco).
(§3) VWMD mutations were introduced into the genome of the HEK293T ATF4-Fluc stable cell lines by using Gene Art CRISPR nuclease vector with OFP Reporter kit (ThermoFisher; see Table 3 below). Guide RNAs were designed using the CRISPR Design Tool (http://crispr.mit.edu) and ligated into the CRISPR OFP Nuclease Vector. To obtain homology directed repair (HDR) incorporating VWMD point mutations in the genome, 150 bp ssDNA ultramer oligos were synthesized by Integrated DNA Technologies containing specific mutations of interest. In addition to the VWMD mutations, the ssDNA HDR templates contained a silent mutation to the PAM site of the CRISPR gRNA sequence (to avoid further Cas9 cutting) and 75 bp of homology on each side of the mutation.
(§4) HEK293T ATF4-Fluc cells were transfected with 500 ng of the CRISPR OFP Nuclease Vector and 1 uL of 10 μM ssDNA HDR template using lipofectamine 3000 (ThermoFisher) or SF Cell Line 4D-nucleofector X Kit (Lonza) according to the manufacturer's instructions. After 2-3 days of recovery, single cells were sorted for positive OFP expression on a FACS Aria II (BD Biosciences) into wells of a 96 well plate and allowed to recover for 1-2 weeks.
(§5) The resulting clones were surveyed for CRISPR editing and HDR by harvesting the genomic DNA with the PureLink Genomic DNA kit (ThermoFisher), amplifying a […] locus near the editing site, and sequencing the amplicon. […] Typical clones obtained were hemizygous for the VWMD point mutation, with one or two alleles harboring the desired mutation, and the remaining alleles knocked out (edited to produce a premature stop codon). […]

[2] = target: T2, eIF2B mutant B4 R357W (HEK293T ATF4-Fluc cells) (Homo sapiens, UniProt P49770+Q9UI10, R357W); experiment: ATF4-Luc assay, VWMD eIF2B mutant B4 R357W; format: cell-based; details: 1 μg/mL tunicamycin, 7 hours
T2 construct: endogenous in cells
Method: as §1, §2, §3, §4, §5

[3] = target: T3, eIF2B mutant B3 H341Q (HEK293T ATF4-Fluc cells) (Homo sapiens, UniProt P49770+Q9NR50+Q9UI10, H341Q); experiment: ATF4-Luc assay, VWMD eIF2B mutant B3 H341Q; format: cell-based; details: 1 μg/mL tunicamycin, 7 hours
T3 construct: endogenous in cells
Method: as §1, §2, §3, §4, §5

[4] = test system: ATF4 luciferase reporter in HEK293T cells; experiment: ATF4-Luc assay (ATF4 luciferase reporter, tunicamycin-treated HEK293T cells); format: cell-based, human; details: Homo sapiens, HEK-293T; HEK293T cells carrying the ATF4 luciferase reporter, 1 μg/mL tunicamycin, 7 hours
[5] = target: T4, eIF2B mutant B1 V183F (HEK293T ATF4-Fluc cells) (Homo sapiens, UniProt P49770+Q14232+Q9UI10, V183F); experiment: ATF4-Luc assay, VWMD eIF2B mutant B1 V183F; format: cell-based; details: 1 μg/mL tunicamycin, 7 hours
T4 construct: endogenous in cells
Method: as §1, §2, §3, §4, §5

[6] = target: T5, eIF2B mutant B4 R483W (HEK293T ATF4-Fluc cells) (Homo sapiens, UniProt P49770+Q9UI10, R483W); experiment: ATF4-Luc assay, VWMD eIF2B mutant B4 R483W; format: cell-based; details: 1 μg/mL tunicamycin, 7 hours
T5 construct: endogenous in cells
Method: as §1, §2, §3, §4, §5

[7] = target: T6, eIF2B mutant B3 I346T (HEK293T ATF4-Fluc cells) (Homo sapiens, UniProt P49770+Q9NR50+Q9UI10, I346T); experiment: ATF4-Luc assay, VWMD eIF2B mutant B3 I346T; format: cell-based; details: 1 μg/mL tunicamycin, 7 hours
T6 construct: endogenous in cells
Method: as §1, §2, §3, §4, §5

[8] = target: T7, eIF2B mutant B5 R195H (HEK293T ATF4-Fluc cells) (Homo sapiens, UniProt P49770+Q13144+Q9UI10, R195H); experiment: ATF4-Luc assay, VWMD eIF2B mutant B5 R195H; format: cell-based; details: 1 μg/mL tunicamycin, 7 hours
T7 construct: endogenous in cells
Method: as §1, §2, §3, §4, §5

T5 sequence (Q9UI10 whole entry R483W): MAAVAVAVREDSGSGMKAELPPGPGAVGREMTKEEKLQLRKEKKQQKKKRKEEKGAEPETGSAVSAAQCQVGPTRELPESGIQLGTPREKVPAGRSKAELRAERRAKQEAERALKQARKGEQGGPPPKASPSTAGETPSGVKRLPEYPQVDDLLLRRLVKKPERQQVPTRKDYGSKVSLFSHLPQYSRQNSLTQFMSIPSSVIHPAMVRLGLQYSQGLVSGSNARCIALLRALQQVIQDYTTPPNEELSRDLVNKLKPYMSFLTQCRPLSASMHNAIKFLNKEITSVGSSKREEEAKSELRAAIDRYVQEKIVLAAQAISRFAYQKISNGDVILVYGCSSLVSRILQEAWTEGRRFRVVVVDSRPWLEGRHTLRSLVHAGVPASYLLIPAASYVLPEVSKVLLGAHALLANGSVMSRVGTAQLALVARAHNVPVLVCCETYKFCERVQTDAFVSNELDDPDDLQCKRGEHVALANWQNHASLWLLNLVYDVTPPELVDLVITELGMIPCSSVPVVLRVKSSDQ
T5 sequence (Q14232 whole entry partner): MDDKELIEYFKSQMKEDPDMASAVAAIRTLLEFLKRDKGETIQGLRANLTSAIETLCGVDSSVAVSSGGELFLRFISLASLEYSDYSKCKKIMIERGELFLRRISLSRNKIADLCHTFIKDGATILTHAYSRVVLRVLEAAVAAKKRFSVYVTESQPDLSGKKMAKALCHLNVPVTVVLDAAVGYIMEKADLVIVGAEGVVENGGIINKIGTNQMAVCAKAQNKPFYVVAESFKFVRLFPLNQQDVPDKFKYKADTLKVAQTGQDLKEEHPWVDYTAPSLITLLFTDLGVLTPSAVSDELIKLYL
T5 sequence (P49770 whole entry): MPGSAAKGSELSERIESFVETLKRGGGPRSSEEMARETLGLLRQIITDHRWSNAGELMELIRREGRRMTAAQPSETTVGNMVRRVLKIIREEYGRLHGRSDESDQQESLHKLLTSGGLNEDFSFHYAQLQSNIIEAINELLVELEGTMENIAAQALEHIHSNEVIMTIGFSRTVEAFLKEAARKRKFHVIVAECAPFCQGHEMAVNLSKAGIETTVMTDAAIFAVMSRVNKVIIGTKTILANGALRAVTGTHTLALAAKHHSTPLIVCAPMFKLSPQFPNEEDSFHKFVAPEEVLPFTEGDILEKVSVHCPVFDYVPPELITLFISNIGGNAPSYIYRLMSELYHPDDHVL
T5 sequence (Q9NR50 whole entry partner): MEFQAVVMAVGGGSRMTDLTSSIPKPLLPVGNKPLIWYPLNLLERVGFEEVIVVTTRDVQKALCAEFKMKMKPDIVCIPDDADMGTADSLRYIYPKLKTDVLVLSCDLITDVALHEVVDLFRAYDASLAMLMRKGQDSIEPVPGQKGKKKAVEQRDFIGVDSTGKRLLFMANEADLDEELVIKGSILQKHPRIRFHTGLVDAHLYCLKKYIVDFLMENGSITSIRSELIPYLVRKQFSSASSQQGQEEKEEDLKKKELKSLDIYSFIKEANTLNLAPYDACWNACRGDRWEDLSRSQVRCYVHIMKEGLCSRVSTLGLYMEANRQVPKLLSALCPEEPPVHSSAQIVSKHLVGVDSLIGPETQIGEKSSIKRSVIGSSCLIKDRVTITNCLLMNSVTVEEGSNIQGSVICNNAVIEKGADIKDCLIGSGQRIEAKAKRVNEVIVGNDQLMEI
T5 sequence (Q13144 whole entry partner): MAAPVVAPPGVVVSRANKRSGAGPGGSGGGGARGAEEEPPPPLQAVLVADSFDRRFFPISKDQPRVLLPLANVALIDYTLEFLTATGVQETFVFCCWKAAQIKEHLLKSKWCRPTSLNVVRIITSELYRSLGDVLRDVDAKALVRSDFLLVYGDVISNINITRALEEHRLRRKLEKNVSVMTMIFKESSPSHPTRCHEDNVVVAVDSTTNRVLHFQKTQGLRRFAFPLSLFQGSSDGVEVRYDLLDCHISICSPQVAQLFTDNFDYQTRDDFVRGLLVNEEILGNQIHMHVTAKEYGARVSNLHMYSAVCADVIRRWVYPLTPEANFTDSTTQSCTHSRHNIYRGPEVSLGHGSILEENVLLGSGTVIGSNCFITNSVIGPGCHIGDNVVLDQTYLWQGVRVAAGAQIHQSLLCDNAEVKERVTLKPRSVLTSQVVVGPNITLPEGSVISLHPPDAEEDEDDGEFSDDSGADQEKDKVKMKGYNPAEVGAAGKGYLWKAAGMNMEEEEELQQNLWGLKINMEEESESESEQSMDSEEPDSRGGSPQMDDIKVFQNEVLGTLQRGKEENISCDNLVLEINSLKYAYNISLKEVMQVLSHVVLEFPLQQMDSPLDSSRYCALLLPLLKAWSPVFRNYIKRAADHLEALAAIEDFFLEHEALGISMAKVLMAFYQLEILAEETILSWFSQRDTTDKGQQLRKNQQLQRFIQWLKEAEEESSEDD
T7 sequence (Q13144 whole entry R195H): as the sequence (Q13144 whole entry partner) above, with R195H counted along it
T7 sequence (Q14232 whole entry partner): as the sequence (Q14232 whole entry partner) above
T7 sequence (P49770 whole entry): as the sequence (P49770 whole entry) above
T7 sequence (Q9NR50 whole entry partner): as the sequence (Q9NR50 whole entry partner) above
T7 sequence (Q9UI10 whole entry): as the sequence (Q9UI10 whole entry R483W) above, with W483R counted along it
T1 sequence (Q13144 whole entry R113H): as the sequence (Q13144 whole entry partner) above, with R113H counted along it
T1 sequence (Q14232 whole entry partner): as the sequence (Q14232 whole entry partner) above
T1 sequence (P49770 whole entry): as the sequence (P49770 whole entry) above
T1 sequence (Q9NR50 whole entry partner): as the sequence (Q9NR50 whole entry partner) above
T1 sequence (Q9UI10 whole entry): as the sequence (Q9UI10 whole entry R483W) above, with W483R counted along it
T3 sequence (Q9NR50 whole entry H341Q): as the sequence (Q9NR50 whole entry partner) above, with H341Q counted along it
T3 sequence (Q14232 whole entry partner): as the sequence (Q14232 whole entry partner) above
T3 sequence (P49770 whole entry): as the sequence (P49770 whole entry) above
T3 sequence (Q9UI10 whole entry): as the sequence (Q9UI10 whole entry R483W) above, with W483R counted along it
T3 sequence (Q13144 whole entry partner): as the sequence (Q13144 whole entry partner) above
T2 sequence (Q9UI10 whole entry R357W): as the sequence (Q9UI10 whole entry R483W) above, with R357W, W483R counted along it
T2 sequence (Q14232 whole entry partner): as the sequence (Q14232 whole entry partner) above
T2 sequence (P49770 whole entry): as the sequence (P49770 whole entry) above
T2 sequence (Q9NR50 whole entry partner): as the sequence (Q9NR50 whole entry partner) above
T2 sequence (Q13144 whole entry partner): as the sequence (Q13144 whole entry partner) above
T6 sequence (Q9NR50 whole entry I346T): as the sequence (Q9NR50 whole entry partner) above, with I346T counted along it
T6 sequence (Q14232 whole entry partner): as the sequence (Q14232 whole entry partner) above
T6 sequence (P49770 whole entry): as the sequence (P49770 whole entry) above
T6 sequence (Q9UI10 whole entry): as the sequence (Q9UI10 whole entry R483W) above, with W483R counted along it
T6 sequence (Q13144 whole entry partner): as the sequence (Q13144 whole entry partner) above
T4 sequence (Q14232 whole entry V183F): as the sequence (Q14232 whole entry partner) above, with V183F counted along it
T4 sequence (P49770 whole entry): as the sequence (P49770 whole entry) above
T4 sequence (Q9NR50 whole entry partner): as the sequence (Q9NR50 whole entry partner) above
T4 sequence (Q9UI10 whole entry): as the sequence (Q9UI10 whole entry R483W) above, with W483R counted along it
T4 sequence (Q13144 whole entry partner): as the sequence (Q13144 whole entry partner) above

EC50 [1]: < 10 nM
EC50 [2]: < 10 nM
EC50 [3]: < 10 nM
EC50 [5]: < 10 nM
EC50 [6]: < 10 nM
EC50 [7]: < 10 nM
EC50 [8]: < 10 nM
Compound: O=C(COc1ccc(Cl)cc1)NC12CC(NC(=O)COc3ccc(Cl)cc3)(C1)C2 [Compound 112, N,N′-(bicyclo[1.1.1]pentane-1,3-diyl)bis[2-(4-chlorophenoxy)acetamide]]
EC50 [4]: < 10 nM

EC50 [1]: > 2000 nM
EC50 [2]: 500 to 2000 nM
EC50 [3]: 500 to 2000 nM
EC50 [5]: > 2000 nM
EC50 [6]: > 2000 nM
EC50 [7]: 500 to 2000 nM
EC50 [8]: 500 to 2000 nM
Compound: Cc1noc(COCC(=O)NC23CC(NC(=O)COc4ccc(Cl)c(F)c4)(C2)C3)n1 [Compound 217, 2-(4-chloro-3-fluorophenoxy)-N-(3-{2-[(3-methyl-1,2,4-oxadiazol-5-yl)methoxy]acetamido}bicyclo[1.1.1]pentan-1-yl)acetamide]
EC50 [4]: 500 to 2000 nM

EC50 [1]: 10 to 50 nM
EC50 [2]: 10 to 50 nM
EC50 [3]: 10 to 50 nM
EC50 [5]: 50 to 250 nM
EC50 [6]: < 10 nM
EC50 [7]: < 10 nM
EC50 [8]: 10 to 50 nM
Compound: O=C(COc1ccc(C(F)(F)F)nc1)NC12CC(NC(=O)COc3ccc(Cl)c(F)c3)(C1)C2 [Compound 175, 2-(4-chloro-3-fluorophenoxy)-N-[3-(2-{[6-(trifluoromethyl)pyridin-3-yl]oxy}acetamido)bicyclo[1.1.1]pentan-1-yl]acetamide]
EC50 [4]: < 10 nM

EC50 [1]: < 10 nM
EC50 [2]: < 10 nM
EC50 [3]: < 10 nM
EC50 [5]: < 10 nM
EC50 [6]: < 10 nM
EC50 [7]: < 10 nM
EC50 [8]: < 10 nM
Compound: O=C(COc1ccc(Cl)c(F)c1)NC12CCC(NC(=O)COc3ccc(Cl)c(F)c3)(CC1)[C@@H](O)C2 (single isomer, unassigned) [Compound 297]
EC50 [4]: < 10 nM

Compound: CN(CC(=O)NC12CCC(NC(=O)COc3ccc(Cl)c(Cl)c3)(C1)C2)c1ccc(Cl)cc1 [Compound 202, N^2-(4-chlorophenyl)-N-{4-[2-(3,4-dichlorophenoxy)acetamido]-bicyclo[2.1.1]hexan-1-yl}-N^2-methylglycinamide]
EC50 [4]: > 2000 nM

Compound: O=C(COc1ccccc1)NC12CC(NC(=O)COc3ccc(Cl)c(F)c3)(C1)C2 [Compound 398, 2-(4-chloro-3-fluorophenoxy)-N-[3-(2-phenoxyacetamido)bicyclo[1.1.1]pentan-1-yl]acetamide]
EC50 [4]: 10 to 50 nM

Compound: O=C(Cc1ccc(Cl)c(F)c1)NC12CCC(NC(=O)COc3ccc(Cl)c(F)c3)(CC1)[C@@H](O)C2 [Compound 608, 2-(4-chloro-3-fluorophenoxy)-N-{(2S)-4-[2-(4-chloro-3-fluorophenyl)acetamido]-2-hydroxybicyclo[2.2.2]octan-1-yl}acetamide]
EC50 [4]: 50 to 250 nM

Compound: O=C(COc1ccc(Cl)c(F)c1)NC12CCC(NC(=O)COc3ccc(Cl)c(F)c3)(CC1)[C@@H](O)[C@H]2Br (racemic) [Compound 571, rac-N,N′-[(2S,3R)-2-bromo-3-hydroxybicyclo[2.2.2]octane-1,4-diyl]bis[2-(4-chloro-3-fluorophenoxy)acetamide]]
EC50 [4]: 10 to 50 nM

Compound: O=C(COc1ccc(F)cc1)NC12CCC(NC(=O)COc3ccc(F)c(F)c3)(CC1)[C@@H](O)C2 [Compound 617, 2-(3,4-difluorophenoxy)-N-{(2S)-4-[2-(4-fluorophenoxy)acetamido]-2-hydroxybicyclo[2.2.2]octan-1-yl}acetamide]
EC50 [4]: < 10 nM

Compound: Cc1cc(OCC(=O)NC23CCC(NC(=O)COc4ccc(Cl)cc4)(CC2)[C@@H](O)C3)ccc1F [Compound 816, 2-(4-chlorophenoxy)-N-{(2S)-4-[2-(4-fluoro-3-methylphenoxy)acetamido]-2-hydroxybicyclo[2.2.2]octan-1-yl}acetamide]
EC50 [4]: < 10 nM

Compound: CS(=O)(=O)c1ccc(OCC(=O)NC23CC(NC(=O)COc4ccc(Cl)c(F)c4)(C2)C3)cn1 [Compound 257, 2-(4-chloro-3-fluorophenoxy)-N-[3-(2-{[6-(methanesulfonyl)pyridin-3-yl]oxy}acetamido)bicyclo[1.1.1]pentan-1-yl]acetamide]
EC50 [4]: 250 to 500 nM

Compound: O=C(COc1ccc(Cl)c(F)c1)NC12CCC(NCCOc3ccc(F)cc3)(CC1)C(O)C2 (stereo not drawn) [Compound 331, 2-(4-chloro-3-fluorophenoxy)-N-(4-{[2-(4-fluorophenoxy)ethyl]amino}-3-hydroxybicyclo[2.2.2]octan-1-yl)acetamide]
EC50 [4]: < 10 nM

Compound: O=C(COc1ccc(F)c(F)c1)NC12CC(NC(=O)COc3ccc4c(c3)OC(F)(F)O4)(C1)C2 [Compound 379, 2-[(2,2-difluoro-2H-1,3-benzodioxol-5-yl)oxy]-N-{3-[2-(3,4-difluorophenoxy)acetamido]bicyclo[1.1.1]pentan-1-yl}acetamide]
EC50 [4]: < 10 nM

Compound: Cc1ccc(OCC(=O)NC23CC(NC(=O)COc4ccc(Cl)c(F)c4)(C2)C3)c(C)n1 [Compound 232, 2-(4-chloro-3-fluorophenoxy)-N-(3-{2-[(2,6-dimethylpyridin-3-yl)oxy]acetamido}bicyclo[1.1.1]pentan-1-yl)acetamide]
EC50 [4]: 500 to 2000 nM

Compound: O=C(COc1ccc2c(c1)OCCO2)NC12CCC(NC(=O)COc3ccc(Cl)c(F)c3)(CC1)[C@@H](O)C2 [Compound 758, 2-(4-chloro-3-fluorophenoxy)-N-[(2S)-4-{2-[(2,3-dihydro-1,4-benzodioxin-6-yl)oxy]acetamido}-2-hydroxybicyclo[2.2.2]octan-1-yl]acetamide]
EC50 [4]: < 10 nM

Compound: O=C(COc1ccc(F)c(F)c1)NC12CC(NC(=O)COc3ccc(Cl)c(Cl)c3)(C1)C2 [Compound 584, 2-(3,4-dichlorophenoxy)-N-{3-[2-(3,4-difluorophenoxy)acetamido]bicyclo[1.1.1]pentan-1-yl}acetamide]
EC50 [4]: < 10 nM

Compound: O=C(COc1ccc(Cl)c(F)c1)NC12CCC(NC(=O)COc3ccc(Cl)c(F)c3)(CC1)C(F)C2 (stereo not drawn) [Compound 365, N,N′-(2-fluorobicyclo[2.2.2]octane-1,4-diyl)bis[2-(4-chloro-3-fluorophenoxy)acetamide]]
EC50 [4]: < 10 nM
